In US20240360148A1 (SUVALENT THERAPEUTICS, INC., priority 2021, published 2024) one finds IC50 data, which are given here for 24 compounds.

One test concerns the target SAE1 (Homo sapiens (Human), UniProt Q9UBE0+Q9UBT2). The experiment in a line: SAE High Throughput Biochemical Assay (HTRF), 15 min preincubation. The settings on record: read-out: 15 min preincubation HTRF IC50 (μM) Ave, SAE1 12.5 nM, ATP 100 μM. Summed up:
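HTRF detection of SUMO transfer from SUMO-GST to UBC9-His (40 nM each) by SAE1 at 12.5 nM used 100 μM ATP in pH 7.5 HEPES buffer with 10 mM MgCl2 and 0.1% BSA. Enzyme and compound were preincubated 15 min at RT and the reaction ran 45 min, with readings after 2 h and overnight.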

Test [1] relates to sumoylation levels (SUMO 2/3 conjugates) in HCT-116 cells. Nature of the test: HCT-116 4 Hour Cell Assay (Western, SUMO 2/3 conjugates). Type of test: cell-based. The settings on record: Homo sapiens, HCT-116, 4 h, 4 h treatment, Anti-Sumo 2-3 immunoblot, read-out: HCT-116 Western 4 h IC50 (μM) Ave. Summed up: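 IC50 derived from fluorescent immunoblot quantification of SUMO 2/3 conjugate bands, normalized to total protein, after non-reducing SDS-PAGE. Lysis used RIPA plus NEM; exposure was 4 h across 11 concentrations, three-fold serial dilution starting at 25 μM.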
(In general: Immunoblotting shows a protein as a band on a membrane.)

Chain of SAE1 (Q9UBE0 whole entry): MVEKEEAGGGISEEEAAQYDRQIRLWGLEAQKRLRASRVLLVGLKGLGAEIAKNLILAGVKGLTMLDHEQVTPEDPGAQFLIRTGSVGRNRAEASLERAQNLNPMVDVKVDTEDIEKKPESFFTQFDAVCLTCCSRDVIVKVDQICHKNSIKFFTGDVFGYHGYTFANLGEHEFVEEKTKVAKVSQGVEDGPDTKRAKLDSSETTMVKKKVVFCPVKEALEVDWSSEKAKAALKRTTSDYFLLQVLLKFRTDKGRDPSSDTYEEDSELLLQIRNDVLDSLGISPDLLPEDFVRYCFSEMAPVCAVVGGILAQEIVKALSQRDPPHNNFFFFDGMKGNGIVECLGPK
Chain of SAE1 (Q9UBT2 whole entry): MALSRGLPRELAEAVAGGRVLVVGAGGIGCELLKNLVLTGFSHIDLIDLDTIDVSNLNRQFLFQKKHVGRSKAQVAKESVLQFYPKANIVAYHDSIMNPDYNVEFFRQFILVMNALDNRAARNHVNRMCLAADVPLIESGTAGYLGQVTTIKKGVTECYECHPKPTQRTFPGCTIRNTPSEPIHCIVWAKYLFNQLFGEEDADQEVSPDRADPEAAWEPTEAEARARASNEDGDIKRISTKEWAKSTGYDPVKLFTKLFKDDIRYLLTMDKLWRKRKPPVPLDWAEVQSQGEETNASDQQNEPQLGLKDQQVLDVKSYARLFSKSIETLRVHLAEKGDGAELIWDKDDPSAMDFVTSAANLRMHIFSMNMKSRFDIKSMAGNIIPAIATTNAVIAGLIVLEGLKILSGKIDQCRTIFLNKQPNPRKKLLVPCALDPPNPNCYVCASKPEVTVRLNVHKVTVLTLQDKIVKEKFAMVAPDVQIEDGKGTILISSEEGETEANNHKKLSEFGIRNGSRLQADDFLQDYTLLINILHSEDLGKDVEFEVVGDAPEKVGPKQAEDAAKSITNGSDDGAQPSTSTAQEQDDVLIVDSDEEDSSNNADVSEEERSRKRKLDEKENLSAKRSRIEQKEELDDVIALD

For `CCn1cc(-c2ccccc2[C@@H]2CN(C(=O)/C=C/[C@@H]3CC(C)(C)CN3)Cc3sc(C#N)cc32)c(C(F)(F)F)n1` [Example 83, (S)-6-((E)-3-((S)-4,4-Dimethylpyrrolidin-2-yl)acryloyl)-4-(2-(1-ethyl-3-(trifluoromethyl)-1H pyrazol-4-yl)phenyl)-4,5,6,7-tetrahydrothieno[2,3-c]pyridine-2-carbonitrile], the IC50 (usually the concentration that inhibits the measured activity by half) on SAE1 turned out to be 0.76 µM; in test [1], 0.309 µM.

Take `CCn1cc(-c2c(Cl)cccc2C2CN(C(=O)/C=C/CN(C)C)Cc3sc(C#N)cc32)c(C(F)(F)F)n1` (stereo not drawn) [Example 201, (E)-4-(3-Chloro-2-(1-ethyl-3-(trifluoromethyl)-1 H-pyrazol-4-yl)phenyl)-6-(4-(dimethylamino)but-2-enoyl)-4,5,6,7-tetrahydrothieno[2,3-c]pyridine-2-carbonitrile]: the half-inhibitory concentration (IC50) on SAE1 was 1.56 µM; in test [1] it was 1.46 µM.

In the case of `CCn1cc(-c2ccccc2[C@@H]2CN(C(=O)/C=C/C3CCCCN3)Cc3sc(C#N)cc32)c(C(F)(F)F)n1` (stereo partly drawn) [Example 111, (4S)-4-(2-(1-Ethyl-3-(trifluoromethyl)-1H pyrazol-4-yl)phenyl)-6-((E)-3-(piperidin-2-yl)acryloyl)-4,5,6,7-tetrahydrothieno[2,3-c]pyridine-2-carbonitrile], the results for the concentration for half-maximal inhibition (IC50) (at SAE1; in test [1]) were 3.36 µM and 0.909 µM, respectively.

In the case of `CCn1cc(C2=C(C3CN(C(=O)/C=C/CN(C)C)Cc4sc(C#N)cc43)CCCC2)c(C(F)(F)F)n1` (stereo not drawn) [Example 181, (E)-6-(4-(Dimethylamino)but-2-enoyl)-4-(2-(1-ethyl-3-(trifluoromethyl)-1 H-pyrazol-4-yl)cyclohex-1-en-1-yl)-4,5,6,7-tetrahydrothieno[2,3-c]pyridine-2-carbonitrile], the IC50 stood at 3.16 µM at SAE1 and 0.878 µM in test [1].

For the compound `CCn1cc(-c2ccccc2[C@H]2c3cc(C#N)sc3CN(C(=O)/C=C/CN(C)C)[C@@H]2C)c(C(F)(F)F)n1` [Compound 233], the concentration for half-maximal inhibition (IC50) at SAE1 came out at 4.82 µM; in test [1], 0.914 µM.

With `CN(C)C/C=C/C(=O)N1Cc2sc(C#N)cc2[C@H](c2ccccc2-c2cn(CCF)nc2C(F)(F)F)C1` [Example 17, (S,E)-6-(4-(dimethylamino)but-2-enoyl)-4-(2-(1-(2-fluoroethyl)-3-(trifluoromethyl)-1 H-pyrazol-4-yl)phenyl)-4,5,6,7-tetrahydrothieno[2,3-c]pyridine-2-carbonitrile], the IC50 at SAE1 is 2.47 µM; in test [1], 0.269 µM.

`C=CC(=O)N1Cc2sc(C#N)cc2C(c2ccc(NC(C)=O)cc2-c2cn(CC)nc2C(F)(F)F)C1` (stereo not drawn) [Compound 230]: the IC50 at SAE1 came out at 1.1 µM; in test [1] it was 5.39 µM.

With `CCn1cc(-c2c(Cl)cc(F)cc2C2CN(C(=O)/C=C/CN(C)C)Cc3sc(C#N)cc32)c(C(F)(F)F)n1` (stereo not drawn) [Example 186, (E)-4-(3-Chloro-2-(1-ethyl-3-(trifluoromethyl)-1 H-pyrazol-4-yl)-5-fluorophenyl)-6-(4-(dimethylamino)but-2-enoyl)-4,5,6,7-tetrahydrothieno[2,3-c]pyridine-2-carbonitrile], the figures for the IC50 (at SAE1; in test [1]) were 6.37 µM and 2.13 µM, respectively.

With `CCn1cc(-c2c(F)cccc2C2CN(C(=O)/C=C/CN(C)C)Cc3sc(C#N)cc32)c(C(F)(F)F)n1` (stereo not drawn) [Compound 234], the IC50 on SAE1 worked out at 2.23 µM; in test [1] it was 0.339 µM.

Take `CCn1cc(-c2ccccc2[C@@H]2CN(C(=O)/C=C/CN3CCCC3C)Cc3sc(C#N)cc32)c(C(F)(F)F)n1` (stereo partly drawn) [Example 31, (4S)-4-(2-(1-ethyl-3-(trifluoromethyl)-1 H-pyrazol-4-yl)phenyl)-6-((E)-4-(2-methylpyrrolidin-1-yl)but-2-enoyl)-4,5,6,7-tetrahydrothieno[2,3-c]pyridine-2-carbonitrile]: the IC50 at SAE1 came to 10.2 µM; in test [1] it was 0.918 µM.

As to `CCn1cc(-c2ccccc2[C@@H]2CN(C(=O)/C=C/[C@@H]3C[C@@H](C)CN3)Cc3sc(C#N)cc32)c(C(F)(F)F)n1` [Example 114, (S)-4-(2-(1-Ethyl-3-(trifluoromethyl)-1 H-pyrazol-4-yl)phenyl)-6-((E)-3-((2S, 4R)-4-methylpyrrolidin-2-yl)acryloyl)-4,5,6,7-tetrahydrothieno[2,3-c]pyridine-2-carbonitrile], the IC50 on SAE1 is 1.19 µM; in test [1], 0.262 µM.

As for `CCn1cc(-c2c(F)cc(F)cc2[C@@H]2CN(C(=O)/C=C/CN(C)C)Cc3sc(C#N)cc32)c(C(F)(F)F)n1` [Compound 238], the IC50 at SAE1 worked out at 1.79 µM; in test [1], 0.844 µM.

For `CCn1cc(-c2c(F)cccc2[C@@H]2CN(C(=O)/C=C/CNC(C)C)Cc3sc(C#N)cc32)c(C(F)(F)F)n1` [Example 106, (S,E)-4-(2-(1-Ethyl-3-(trifluoromethyl)-1H pyrazol-4-yl)-3-fluorophenyl)-6-(4-(isopropylamino)but-2-enoyl)-4,5,6,7-tetrahydrothieno[2,3-c]pyridine-2-carbonitrile], the IC50 on SAE1 worked out at 0.8 µM; in test [1], 0.283 µM.

As to `C=CC(=O)N1Cc2sc(C#N)cc2C(c2cccc(F)c2-c2cn(CC)nc2C(F)(F)F)C1` (stereo not drawn) [Compound 236], the values for the IC50 (at SAE1; in test [1]) were 0.24 µM and 0.356 µM, respectively.

On to `CN(C)CC#CC(=O)N1Cc2sc(C#N)cc2[C@H](c2ccccc2-c2c[nH]nc2C(F)(F)F)C1` [Example 151, (S)-6-(4-(Dimethylamino)but-2-ynoyl)-4-(2-(3-(trifluoromethyl)-1 H-pyrazol-4-yl)phenyl)-4,5,6,7-tetrahydrothieno[2,3-c]pyridine-2-carbonitrile], for which the IC50 was determined as 0.18 µM on SAE1 and 0.587 µM in test [1].

In the case of `CCn1cc(C2=C([C@@H]3CN(C(=O)/C=C/CN(C)C)Cc4sc(C#N)cc43)CCCC2)c(C(F)(F)F)n1` [Compound 237], the IC50 at SAE1 was found to be 2.64 µM; in test [1], 0.897 µM.

With `CCn1cc(-c2ccccc2[C@@H]2CN(C(=O)/C=C/CN3CCCC3)Cc3sc(C#N)cc32)c(C(F)(F)F)n1` [Example 30, (S, E)-4-(2-(1-ethyl-3-(trifluoromethyl)-1 H-pyrazol-4-yl)phenyl)-6-(4-(pyrrolidin-1-yl)but-2-enoyl)-4,5,6,7-tetrahydrothieno[2,3-c]pyridine-2-carbonitrile], the concentration for half-maximal inhibition (IC50) was determined as 3.3 µM on SAE1 and 0.746 µM in test [1].

As for `CCn1cc(-c2c(F)cccc2[C@@H]2CN(C(=O)/C=C/[C@H]3CCN3)Cc3sc(C#N)cc32)c(C(F)(F)F)n1` [Example 54, (S)-6-((E)-3-((R)-azetidin-2-yl)acryloyl)-4-((S)-2-(1-ethyl-3-(trifluoromethyl)-1 H-pyrazol-4-yl)-3-fluorophenyl)-4,5,6,7-tetrahydrothieno[2,3-c]pyridine-2-carbonitrile], the results for the IC50 (at SAE1; in test [1]) were 0.55 µM and 0.57 µM, respectively.

In the case of `CCn1cc(-c2ccccc2[C@@H]2CN(C(=O)C#CC3(N)CCCC3)Cc3sc(C#N)cc32)c(C(F)(F)F)n1` [Example 138, (S)-6-(3-(1-Aminocyclopentyl)propioloyl)-4-(2-(1-ethyl-3-(trifluoromethyl)-1 H-pyrazol-4-yl)phenyl)-4,5,6,7-tetrahydrothieno[2,3-c]pyridine-2-carbonitrile], the IC50 is 0.5 µM on SAE1 and 2.69 µM in test [1].

On to `CCn1cc(-c2c(F)cccc2[C@@H]2CN(C(=O)/C=C/[C@@H]3C[C@@H]4C[C@@H]4N3)Cc3sc(C#N)cc32)c(C(F)(F)F)n1` [Example 123, (S)-6-((E)-3-((1S,3S,5S)-2-Azabicyclo[3.1.0]hexan-3-yl)acryloyl)-4-(2-(1-ethyl-3-(trifluoromethyl)-1H pyrazol-4-yl)-3-fluorophenyl)-4,5,6,7-tetrahydrothieno[2,3-c]pyridine-2-carbonitrile], for which the values for the concentration for half-maximal inhibition (IC50) (at SAE1; in test [1]) were 1.17 µM and 0.178 µM, respectively.

Turning to `CCn1cc(-c2ccccc2[C@@H]2CN(C(=O)/C=C/[C@@H]3CCCN3)Cc3sc(C#N)cc32)c(C(F)(F)F)n1` [Example 112], the half-maximal inhibitory concentration (IC50) worked out at 0.76 µM at SAE1 and 0.209 µM in test [1].

Take `CCn1cc(-c2ccccc2[C@@H]2CN(C(=O)C#CC3(N)CC3)Cc3sc(C#N)cc32)c(C(F)(F)F)n1` [Example 136, (S)-6-(3-(1-Aminocyclopropyl)propioloyl)-4-(2-(1-ethyl-3-(trifluoromethyl)-1 H-pyrazol-4-yl)phenyl)-4,5,6,7-tetrahydrothieno[2,3-c]pyridine-2-carbonitrile]: the IC50 at SAE1 came to 4.13 µM; in test [1], 2.53 µM.

As for `CCn1cc(-c2ccccc2[C@@H]2CN(C(=O)C#CC3CCNC3)Cc3sc(C#N)cc32)c(C(F)(F)F)n1` (stereo partly drawn) [Example 146, (4S)-4-(2-(1-Ethyl-3-(trifluoromethyl)-1 H pyrazol-4-yl)phenyl)-6-(3-(pyrrolidin-3-yl)propioloyl)-4,5,6,7-tetrahydrothieno[2,3-c]pyridine-2-carbonitrile], the IC50 at SAE1 stood at 1.92 µM; in test [1] it was 0.501 µM.

Take `CCn1cc(-c2ccccc2[C@@H]2CN(C(=O)/C=C/CNC(C)C)Cc3sc(C#N)cc32)c(C(F)(F)F)n1` [Example 105, (S,E)-4-(2-(1-Ethyl-3-(trifluoromethyl)-1 H-pyrazol-4-yl)phenyl)-6-(4-(isopropylamino)but-2-enoyl)-4,5,6,7-tetrahydrothieno[2,3-c]pyridine-2-carbonitrile]: the IC50 stood at 2.42 µM at SAE1 and 0.62 µM in test [1].
